Measured values: the supplement of paper PMC10290057
Counter-ions that a name gives are not always drawn.

tested on: HCT116; test: efficacy (fitted maximal change in viability relative to DMSO control); higher = less cytotoxic (negative = loss of viability); settings: 48 h
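Also: Luminescence-based viability readout, five doses per compound, normalized against on-plate DMSO and empty-well controls, followed by dose-response curve fitting for every drug.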

Structure (SMILES) | efficacy [%]
O=C(Cc1ccccc1)Nc1nnc(CCSCCc2nnc(NC(=O)Cc3ccccc3)s2)s1 [BPTES] | -25
O=C1Cc2cc(C(=O)NC3C[C@H]4CC[C@@H](C3)N4[S+](=O)([O-])CC3CCN(CCCC(F)(F)F)CC3)c(Cl)cc2N1 (stereo partly drawn) | -9.6
CN1N(C2=CC=CC=C2)C(=O)C(=C1/C3=CC=CC=C3)/C(=O)C4=CC=C(C)C(=C4N)C5=CC=C6N=C(C)C=CC6=C5 [AMG PERK 44] | -31.8
CCCn1c(=O)c2[nH]c(C34CC5CC3C[C@@H](C5)C4)nc2n(CCC)c1=O [Rolofylline] | -6.71
O=C1Nc2ccc(Cl)cc2[C@@](C#CC2CC2)(C(F)(F)F)O1 [Efavirenz] | -85.4
O=C(O)CCC1CCC(c2cc(F)ccc2F)([S+](=O)([O-])c2ccc(Cl)cc2)CC1 (stereo not drawn) [MK-0752] | -19
O=C(C1CCCCC1)N1CC(=O)N2CCc3ccccc3C2C1 (stereo not drawn) [Praziquantel] | -15.9
c1coc(CNc2ncnc3nc[nH]c23)c1 [Kinetin] | -22.2
CCc1c(C(=O)C(N)=O)c2c(OCC(=O)O)cccc2n1Cc1ccccc1 [Varespladib] | -27.8
Cc1cc(/C=c2/sc3nc4ccccc4n3c2=O)c(C)n1-c1ccccc1 [ITX3] | -19.9
CN(CC(=O)N(Cc1ccc(C2CCCCC2)cc1)c1ccc(C(=O)O)c(O)c1)[S+](=O)([O-])c1c(F)c(F)c(F)c(F)c1F [BP-1-102] | -10.2
Clc1ccc2ncc(-c3cccc(NC4CNC4)n3)n2c1 | -10.1
C[N]1C2=C(SC(=C2)[S+](C)[O-])C\3=C1C(=O)N(CC4=CC(=CC=C4)N)\N=C3 (stereo not drawn) [TEPP-46] | 21.5
Cc1cc(O)c2c(c1)C(=O)c1cc(O)cc(O)c1C2=O [Emodin] | -31.9
CC(C)(Oc1ccc(C2CC2(Cl)Cl)cc1)C(=O)O (stereo not drawn) [Ciprofibrate] | -6.71
CNC(=O)c1ccc(N2C(=S)N(c3cnc(C#N)c(C(F)(F)F)c3)C(=O)C23CCC3)cc1F [Apalutamide] | -24.3
C[S+](=O)([O-])c1cc(F)cc2c3c(n(Cc4ccc(Cl)cc4)c12)[C@@H](CC(=O)O)CC3 [Laropiprant] | -18.4
COC1=C(OC)C=C2C(=CC=NC2=C1)OC3=CC=C(NC(=O)\C4=C\N(C(C)C)C(=O)N(C4=O)C5=CC=C(F)C=C5)C=C3F | -13.9
O=C(O)CCc1ccc(NCc2cccc(Oc3ccccc3)c2)cc1 [GW-9508] | -8.05
CC(C)OC(=O)[C@H](C)N[P@](=O)(OC[C@H]1O[C@@H](N2\C=C/C(=O)NC2=O)[C@](C)(F)[C@@H]1O)OC3=CC=CC=C3 [Sofosbuvir] | -5.68
CN[C@@H](C)C(=O)N[C@H](C(=O)N1CCC[C@H]1C(=O)Nc1sc(-c2ncco2)nc1-c1ccccc1)C1CCCCC1 [CUDC-427] | -17
COc1ccccc1C(=O)Nc1cc2c(cc1N1CCCCC1)n(C)c(=O)n2C [GSK-5959] | -9.01
C[N]1N=C(C)C2=C1OC(=C(/C#N)C2C3=CC=C(C=C3)C(F)(F)F)/N (stereo not drawn) [BQU-57] | -30.8
CCC1(C)CC(=O)NC1=O (stereo not drawn) [Ethosuximide] | -10.2
C[C@H]1C[C@@H]2[C@H](CC[C@@]3(C)[C@H]2CC[C@]3(OC(C)=O)C(C)=O)[C@@]\4(C)CCC(=O)\C=C14 [Medroxyprogesterone acetate] | -13.3

Structure (SMILES) | efficacy [%]
NC(=O)c1cccc(N)c1 | -10.2
Cc1noc(-c2ccc(-c3ccc(C4(C(=O)O)CC4)cc3)cc2)c1NC(=O)O[C@H](C)c1ccccc1 | -40.6
OC[C@H]1O[C@@H](O[C@@H]2[C@@H](CO)OC(O)(CO)[C@H]2O)[C@H](O)[C@@H](O)[C@H]1O (mixture of isomers) [Lactulose] | 9
C[C@@]1(C(=O)Nc2ccc(F)nc2)CCCN1c1nc(Nc2cc(C3CC3)[nH]n2)c2cccn2n1 | -59.3
CC[S+](=O)([O-])N1CCC([C@@H](C)n2c(C)c(/C(O)=N/Cc3c(OC)cc(C)nc3O)c3ccccc32)CC1 (racemic) [CPI-169 racemate] | -16.2
CCN(CC)CCCC[C@H](NC(=O)[C@H](CC(C)C)NC(=O)[C@H](C)NC(=O)[C@H](Cc1ccccc1)NC(=O)c1ccc(C(C)(C)C)cc1)C(=O)N[C@@H](CO)C(=O)OC [UNC-3866] | -18.9
CC(C)CC(=O)N[C@H](C(=O)N[C@H](C(=O)N[C@@H](CC(C)C)[C@@H](O)CC(=O)N[C@@H](C)C(=O)N[C@@H](CC(C)C)[C@@H](O)CC(=O)O)C(C)C)C(C)C [Pepstatin] | -6.41
CCN1C(=O)\C(=C/C2=CN=C(NCCC3CCN(C)CC3)N=C12)C4=CC=C(C=C4Cl)C5=CN=CC(=N5)C [FRAX-1036] | -62.9
Clc1cccc(C(c2ccc3nc[nH]c3c2)n2ccnc2)c1 (stereo not drawn) [Liarozole] | -23
CC1=C(/C=C/C(C)=C/C=C/C(C)=C/C=C/C=C(C)/C=C/C=C(C)/C=C/C2=C(C)CCCC2(C)C)C(C)(C)CCC1 [beta-Carotene] | -21.3
CCOC(=O)Nc1ccc(NCc2ccc(F)cc2)nc1N [Flupirtine maleate] | 8.9
CO[C@@H]1[C@@H](OC(N)=O)[C@@H](O)[C@H](OC2=CC=C3\C(=C(NC(=O)C4=CC=C([O-])C(=C4)CC=C(C)C)/C(=O)OC3=C2C)O)OC1(C)C [Novobiocin sodium] | 3.79
c1ccc(-c2nn3c(c2-c2ccnc4cc(OCCN5CCOCC5)ccc24)CCC3)nc1 | -41.1
CN(CC#C)C/C1=C/C2=CC=CC=C2OC3=CC=CC=C13 [Omigapil] | -34.5
CCCN(CCC)C(=O)C(CCC(=O)O)NC(=O)c1ccccc1 (stereo not drawn) [Proglumide] | -18.3
C[C@@H](C1CC[C@@]2(O)C3=CC(=O)[C@@H]4C[C@@H](O)[C@@H](O)C[C@]4(C)[C@H]3CC[C@]12C)[C@H](O)CCC(C)(C)O (stereo partly drawn) [Ecdysone] | -17.9
CC(=O)OCC(=O)[C@@]1(O)CC[C@H]2[C@@H]3CCC/4=C/C(=O)CC[C@]4(C)[C@H]3C(=O)C[C@]12C [Cortisone acetate] | 22.5
O=C(/C=C/N1C[C@H]2C[C@@H]1CN2c1ccccn1)c1ccccc1O [PFI-3] | -9.44
CN1C(=O)[C@@H](NC(=O)c2cc(Cc3ccccc3)on2)COc2ccccc21 [GSK-481] | -10.3
COc1ccc(COc2cc3oc(=O)c4cc(C(C)O)ccc4c3cc2OC)cc1 (stereo not drawn) | -22
CC(C)n1cc(-c2ccc3c(c2)N(C)CC3)c2c(N[S+](=O)([O-])c3ccn(C)n3)ccnc21 | -24.7
NC(=O)c1ncn([C@@H]2O[C@H](CO)[C@@H](O)[C@H]2O)n1 [Ribavirin] | 18.5
CCC(c1ccc(O)cc1)C(CC)c1ccc(O)cc1 (stereo not drawn) [Hexestrol] | -61.8
C[C@@H]1C[C@H]2[C@@H]3\C=C(C)/C4=C/C5=C(C[C@]4(C)[C@H]3[C@@H](O)C[C@]2(C)[C@@]1(O)C(=O)COC(C)=O)C=N[N]5C6=CC=CC=C6 [Cortivazol] | -25.2
CC1(C)Cc2c(-c3ccccc3)c(-c3ccc(Cl)cc3)c(CC(=O)O)n2C1 [Licofelone] | -36.6

Structure (SMILES) | efficacy [%]
OC[C@H]1O[C@H]([C@H](O)[C@@H]1O)N2\C=C/C(=O)NC2=O [Uridine] | -9.88
O=C1N\N=C(\C[C@@H]2CCN(C2)C(=O)C3CC3)N1C4=CC=C(C=C4)C5=CC=C6OC=CC6=C5 | -40.3
CO[C@@]12[C@H](COC(N)=O)C/3=C(N1C[C@@H]4N[C@H]24)/C(=O)/C(=C(N)\C3=O)C [Mitomycin C] | -11.2
CCCc1cc(C(N)=S)ccn1 [Protionamide] | -9.17
O=C1NC(O)CCN1[C@@H]1O[C@H](CO)[C@@H](O)[C@H]1O (stereo partly drawn) [Tetrahydrouridine] | -11.8
Cn1cc(-c2ccc3c(c2)CCN3C(=O)Cc2cccc(C(F)(F)F)c2)c2c(N)ncnc21 | -17.9
OC[C@H]1O[C@@H](OC2=CC3=C(C=C2)C(=O)\C(=C/O3)C4=CC=C(O)C=C4)[C@H](O)[C@@H](O)[C@@H]1O [Daidzin] | -23.3
Cc1ccccc1C(=O)Nc1ccc(C(=O)N2CCCC(O)c3cc(Cl)ccc32)c(C)c1 (stereo not drawn) [Tolvaptan] | -64.3
Cc1cc(C)c([S+](=O)([O-])N(CCc2cccc(Br)c2)Cc2ccc(-c3cccc([S+](C)(=O)[O-])c3)cc2)c(C)c1 [SR-9243] | 15.4
N#C/C(=C\c1ccc(O)c(O)c1)C(=O)NCc1ccccc1 [Tyrphostin B42] | -71.9
O=C(CO)N1CCC(c2n[nH]c(-c3ccc(Cl)cc3)c2-c2ccncn2)CC1 [SD-06] | 17.8
CN(Cc1cc(Br)cc(Br)c1N)C1CCCCC1 [Bromhexine hydrochloride] | -27.2
CN(C)CCCN1c2ccccc2CCc2ccc(Cl)cc21 [Clomipramine hydrochloride] | -84.3
COc1cc(C(C)C)c(Oc2cnc(NC(CO)CO)nc2N)cc1I [Ro-51] | 7.2
CN1C2CCC1CC(OC(=O)C(CO)c1ccccc1)C2 (stereo not drawn) [Atropine (sulfate monohydrate)] | -6.96
CCO[C@@H]1OC(=O)C[C@@H]1NC(=O)[C@@H]1CCCN2C(=O)CC[C@H](NC(=O)c3nccc4ccccc34)C(=O)N12 [Pralnacasan] | -15.4
CC(C)NCC(O)c1ccc(N[S+](C)(=O)[O-])cc1 (stereo not drawn) [Sotalol] | -17.6
COc1ccc(-c2cnc3c(-c4cccc5ncccc45)cnn3c2)cc1 [ML-347] | 9.54
CN(C)NC(=O)CCC(=O)O [Daminozide] | -8.97
CC1=CC=C2N=C(NC(=O)CS\C3=N\C4=C(\SCC4)C(=O)N3C5=CC=CC=C5)SC2=C1 [IWP-2] | -12.9
CN[C@@H](C)C(=O)N[C@H](C(=O)N1CCC[C@H]1c1nc(C(=O)c2ccc(F)cc2)cs1)C1CCCCC1 [LCL-161] | -23.8
O=C(c1ccc(N[S+](=O)([O-])c2cccc3cccnc23)cc1)N1CCN(CC2CC2)CC1 [Mitapivat] | -18.2
CCN1CCN(C(=O)N[C@@H](C(=O)N[C@H]2[C@H]3SC\C(=C(/N3C2=O)C(O)=O)CSC4=NN=N[N]4C)C5=CC=C(O)C=C5)C(=O)C1=O [Cefoperazone (sodium salt)] | -15.8
